The record followed here is US7271195B2, “Carbonyl compounds as inhibitors of histone deacetylase for the treatment of disease” (Kalypsys, Inc., priority 2003, dated 2007).

The term IC50 denotes the concentration needed to halve the response being measured. Low values mean greater potency, high ones weaker potency.

In assay [1] the test system is HDAC in cells (cellular histone acetylation levels). Nature of the assay: Cellular histone hyperacetylation assay (cytoblot), cellular HDAC inhibition. To be noted: for IC50 / Cellular IC50: "active" = inhibitory activity but cellular IC50 could not be determined; for Emax: read-out: % Max. Inhibition (cellular). Format: cell-based. As for the experimental part:
Cellular Histone Hyperacetylation Assays:
These two secondary assays evaluates a compound's ability to inhibit HDAC in cells by measuring cellular histone acetylation levels. The cytoblot facilitates quantitative EC50 information for cellular HDAC inhibition. Transformed cell lines (e.g. HeLa, A549, MCF-7) are cultured under standard media and culture conditions prior to plating.
Cells (approx. 2,500/well) are allowed to adhere 10-24 hours to wells of a 384-well Greiner PS assay plate in media containing 1-5% serum. Cells are treated with appropriate compound and specific concentrations for 0 to 24 hours. Cells are washed once with PBS (60 ul) and then fixed (95% ethanol, 5% acetic acid or 2% PFA) for 1 minute at RT (30 ul). Cells are blocked with 1% BSA for 1 hour and washed and stained with antibody (e.g. anti-Acetylated Histone H3, Upstate Biotechnology), followed by washing and incubation with an appropriate secondary antibody conjugated to HRP or fluorophore. For luminescence assays, signal is generated using Luminol substrate (Santa Cruz Biotechnology) and detected using an Aquest plate reader (Molecular Devices).

Assay [2] relates to T1, HDAC.
T1 construct: in vitro IC50; other: in vitro HDAC enzyme source
Nature of the assay: In vitro HDAC-inhibition assay (Fluor de Lys fluorescent substrate). To be noted: for IC50: in vitro HDAC enzyme source; for % Max Inhibition (in vitro): maximum inhibition. In kind it is biochemical. As to the method: In vitro HDAC-inhibition Assay:
This assay measures a compound's ability to inhibit acetyl-lysine deacetylation in vitro and was used as both a primary screening method as well as for IC50 determinations of confirmed inhibitors. The assay is performed in vitro using an HDAC enzyme source (e.g. partially purified nuclear extract or immunopurified HDAC complexes) and a proprietary fluorescent substrate/developer system (HDAC Quantizyme Fluor de Lys Fluorescent Activity Assay, BIOMOL). The assay is run in 1,536-well Greiner white-bottom plates using the following volumes and order of addition:
Step 1: Enzyme (2.5 ul) source added to plate (from refrigerated container) • Step 2: Compounds (50 nl) added with pin transfer device • Step 3: Fluor de Lys (2.5 ul) substrate added, incubate at RT, 30 minutes • Step 4: Developer (5 ul) solution is added (containing TSA), to stop reaction • Step 5: Plate Reader—data collection
The deacetylated fluorophore is excited with 360 nm light and the emitted light (460 nm) is detected on an automated fluorometric plate reader (Aquest, Molecular Devices).

Turning to `CC(=O)SCC(=O)c1ccc(NS(=O)(=O)c2ccc(OC(F)(F)F)cc2)cc1` [Compound 48, Thioacetic acid S-{2-oxo-2-[4-(4-trifluoromethoxy-benzenesulfonylamino)-phenyl]-ethyl}ester], in assay [1], the IC50 was below 1000 nM. Besides, the Emax in assay [1] (maximum inhibition) is above 75%. For the same compound, in assay [2], the IC50 is below 1000 nM and the “% Max Inhibition (in vitro)” value is reported as above 75%.
Turning to `N#CSCC(=O)c1ccc(F)c(F)c1` [Compound 2], in assay [1], the “Cellular IC50” value is “active”. In assay [2], the IC50 is below 1000 nM and the “% Max Inhibition (in vitro)” value is above 75%.
`COc1ccc(S(=O)(=O)Nc2cccc(C(=O)CSC3=NCCS3)c2)cc1OC` [Compound 30]: in assay [1], the IC50 was 1000 to 10000 nM. Moreover, the Emax in assay [1] (maximum inhibition) was above 75%. In addition, in assay [2], the IC50 was in the range of 1000 to 10000 nM and the “% Max Inhibition (in vitro)” value was above 75%.
In the case of `COc1cccc(C(=O)CS)c1` [Compound 42], the values for the IC50 in assay [1] and in assay [2] were above 10000 nM and 1000 to 10000 nM, respectively. Further, the Emax in assay [1] (maximum inhibition) was above 75%. For the same compound, the “% Max Inhibition (in vitro)” value in assay [2] is on record as above 75%.
`N#CSCC(=O)c1ccc(N2CCCC2)cc1` [Compound 11]: in assay [1], the “Cellular IC50” value was “active”. For the same compound, in assay [2], the IC50 fell in the range of 1000 to 10000 nM and the “% Max Inhibition (in vitro)” value was above 50%.
Take `COc1cccc(C(=O)CSC#N)c1` [Compound 9]: in assay [1], the “Cellular IC50” value is recorded as “active”. For the same compound, in assay [2], the IC50 was below 1000 nM and the “% Max Inhibition (in vitro)” value is on record as above 75%.
Consider `Cc1cc(C(=O)CSC#N)ccc1Cl` [Compound 4], for which the IC50 in assay [1] is 1000 to 10000 nM. For the same compound, the Emax in assay [1] (maximum inhibition) is above 75%. Moreover, in assay [2], the IC50 is below 1000 nM and the “% Max Inhibition (in vitro)” value was above 75%.
`Nc1ccccc1NC(=O)c1ccc(CNC(=O)OCc2cccnc2)cc1` [MS-275, reference compound] gave an IC50 in assay [1] of 1000 to 10000 nM. Besides, the “% Max. Inhibition (cellular)” value in assay [1] (maximum inhibition) is given as above 75%. In addition, in assay [2], the IC50 was above 10000 nM and the “% Max Inhibition (in vitro)” value is reported as above 50%.
Take `COc1ccc(C(=O)CSC#N)cc1OC` [Compound 12]: in assay [2], the IC50 lay within 1000 to 10000 nM and the “% Max Inhibition (in vitro)” value is listed as above 75%.
The corresponding values for `C[C@@H]1NC(=O)[C@H]2CCCN2C(=O)[C@H](CCCCCC(=O)[C@@H]2CO2)NC(=O)[C@@H](C)NC1=O` [HC-toxin, reference compound] are below 1000 nM and above 75%.
With `N#CSCC(=O)c1cccc(Br)c1` [Compound 8], the “Cellular IC50” value in assay [1] was “active”. In assay [2], the IC50 is below 1000 nM and the “% Max Inhibition (in vitro)” value is recorded as above 75%.
`O=C1CSC(SCC(=O)c2ccc3c(c2)OCCO3)=N1` [Compound 34, 2-[2-(2,3-Dihydro-benzo[1,4]dioxin-6-yl)-2-oxo-ethylsulfanyl]-thiazol-4-one]: the IC50 in assay [1] fell in the range of 1000 to 10000 nM. In assay [1] (maximum inhibition), the Emax is above 75%. In addition, in assay [2], the IC50 was below 1000 nM and the “% Max Inhibition (in vitro)” value is recorded as above 75%.
Taken in the same sequence, the figures for `O=C(CSC1=NCCS1)c1ccc2c(c1)OCCO2` [Compound 19] were 1000 to 10000 nM, above 50%, above 10000 nM and above 75%.
Consider `O=C1CSC(SCC(=O)c2ccc(Br)cc2)=N1` [Compound 33], for which, in assay [1], the half-maximal inhibitory concentration (IC50) is above 10000 nM. In assay [1] (maximum inhibition), the Emax was above 75%. Besides, in assay [2], the IC50 is below 1000 nM and the “% Max Inhibition (in vitro)” value is on record as above 75%.
The corresponding values for `O=C(CSC1=NCCS1)c1ccccc1` [Compound 14, 2-(4,5-Dihydro-thiazol-2-ylsulfanyl)-1-phenyl-ethanone] are above 10000 nM, below 50%, above 10000 nM and above 75%.
`CCN(CC)c1ccc(C(=O)CSC2=NCCS2)cc1` [Compound 22] displayed an IC50 in assay [1] of 1000 to 10000 nM. For the same compound, the Emax in assay [1] (maximum inhibition) was below 50%. In assay [2], the IC50 was above 10000 nM and the “% Max Inhibition (in vitro)” value was below 50%.
The corresponding values for `CC(=O)Nc1ccc(C(=O)CSC2=NCCS2)cc1` [Compound 21] are 1000 to 10000 nM, above 75%, above 10000 nM and above 75%.
As for `O=C(CSC1=NCCS1)c1ccc(Br)cc1` [Compound 18], the “Cellular IC50” value in assay [1] is “active”. In assay [2], the IC50 was above 10000 nM and the “% Max Inhibition (in vitro)” value is above 75%.
In the case of `N#CSCC(=O)c1ccc(Cl)c(Cl)c1` [Compound 3], the IC50 in assay [1] lay in the range of 1000 to 10000 nM. The Emax in assay [1] (maximum inhibition) came to 104%. Besides, in assay [2], the IC50 was below 1000 nM and the “% Max Inhibition (in vitro)” value was above 75%.
For the compound `COc1ccc(C(=O)CSC2=NCCS2)cc1OC` [Compound 25], in assay [1], the “Cellular IC50” value is given as “active”. In assay [2], the IC50 is above 10000 nM and the “% Max Inhibition (in vitro)” value is listed as below 50%.
`CC(=O)Nc1ccc(C(=O)CSC#N)cc1` [Compound 7] showed an IC50 in assay [1] of 1000 to 10000 nM. In assay [1] (maximum inhibition), the Emax was above 75%. Further, in assay [2], the IC50 was below 1000 nM and the “% Max Inhibition (in vitro)” value is reported as above 75%.
Regarding `O=C(CS)c1ccc(Br)cc1` [Compound 41, 1-(4-Bromo-phenyl)-2-mercapto-ethanone], the “Cellular IC50” value in assay [1] is recorded as “active”. For the same compound, the Emax in assay [1] (maximum inhibition) is above 75%. Further, in assay [2], the IC50 was below 1000 nM and the “% Max Inhibition (in vitro)” value was above 75%.
As for `COc1ccc(S(=O)(=O)Nc2ccc(C(=O)CSC3=NCCS3)cc2)cc1OC` [Compound 26, N-{4-[2-(4,5-Dihydro-thiazol-2-ylsulfanyl)-acetyl]-phenyl}-3,4-dimethoxy-benzenesulfonamide], the IC50 in assay [1] is below 1000 nM; in assay [2], 1000 to 10000 nM. For the same compound, the Emax in assay [1] (maximum inhibition) is above 75%. Moreover, the “% Max Inhibition (in vitro)” value in assay [2] is reported as above 75%.
Turning to `O=C(CSC1=NCCS1)c1ccc(Cl)cc1` [Compound 17], the “Cellular IC50” value in assay [1] was “active”. For the same compound, in assay [2], the half-maximal inhibitory concentration (IC50) was above 10000 nM and the “% Max Inhibition (in vitro)” value is above 75%.
Taken in the same sequence, the figures for `O=C(CSC1=NCCS1)c1ccc(N2CCCC2)cc1` [Compound 24] were “active”, above 10000 nM and above 50%.
In the case of `O=C1CSC(SCC(=O)c2ccccc2)=N1` [Compound 32], the IC50 in assay [1] is above 10000 nM; in assay [2], below 1000 nM. Further, the Emax in assay [1] (maximum inhibition) was above 50%. In addition, the “% Max Inhibition (in vitro)” value in assay [2] was above 75%.
Take `COc1ccc(C(=O)CSC#N)cc1` [Compound 10]: the “Cellular IC50” value in assay [1] is on record as “active”. Also, in assay [2], the IC50 was 1000 to 10000 nM and the “% Max Inhibition (in vitro)” value is given as above 75%.
The compound `O=C(CSC1=NCCS1)c1ccc(Cl)c(Cl)c1` [Compound 15] had an IC50 in assay [1] of 1000 to 10000 nM. The Emax in assay [1] (maximum inhibition) was above 75%. Moreover, in assay [2], the IC50 lay in the range of 1000 to 10000 nM and the “% Max Inhibition (in vitro)” value was above 75%.
As for `O=C(CSC1=NCCS1)c1ccc(NS(=O)(=O)c2ccc(OC(F)(F)F)cc2)cc1` [Compound 27, N-{4-[2-(4,5-Dihydro-thiazol-2-ylsulfanyl)-acetyl]-phenyl}-4-trifluoromethoxy-benzenesulfonamide], the concentration for half-maximal inhibition (IC50) in assay [1] lay within 1000 to 10000 nM. The Emax in assay [1] (maximum inhibition) is above 75%. Moreover, in assay [2], the IC50 was in the range of 1000 to 10000 nM and the “% Max Inhibition (in vitro)” value is listed as above 75%.
Consider `N#CSCC(=O)c1ccc(Cl)cc1` [Compound 6], for which the IC50 in assay [1] was in the range of 1000 to 10000 nM. For the same compound, the Emax in assay [1] (maximum inhibition) is above 75%. Also, in assay [2], the IC50 is below 1000 nM and the “% Max Inhibition (in vitro)” value was above 75%.
For `N#CSCC(=O)c1ccccc1` [Compound 1, 1-Phenyl-2-thiocyanato-ethanone], the “Cellular IC50” value in assay [1] was “active”. Further, in assay [2], the IC50 lay in the range of 1000 to 10000 nM and the “% Max Inhibition (in vitro)” value was above 75%.
Regarding `O=C(CSC1=NCCS1)c1cccc(NS(=O)(=O)c2ccc(OC(F)(F)F)cc2)c1` [Compound 31], the IC50 in assay [1] is 1000 to 10000 nM. Besides, in assay [1] (maximum inhibition), the Emax is above 75%. Further, in assay [2], the IC50 lay within 1000 to 10000 nM and the “% Max Inhibition (in vitro)” value is recorded as above 75%.
In the case of `N#CSCC(=O)c1ccc2c(c1)OCCO2` [Compound 5], in assay [1], the “Cellular IC50” value is “active”. Besides, in assay [2], the IC50 was below 1000 nM and the “% Max Inhibition (in vitro)” value is listed as above 75%.
Taken in the same sequence, the figures for `COc1cccc(C(=O)CSC2=NCCS2)c1` [Compound 20] were “active”, above 10000 nM and above 75%.
With `O=C(CSC1=NCCS1)c1cccc(Br)c1` [Compound 16], in assay [1], the “Cellular IC50” value was “active”. In assay [2], the IC50 is 1000 to 10000 nM and the “% Max Inhibition (in vitro)” value is above 75%.
